{
  "source": "paper PMC7272617",
  "about": "(Scientific Reports, 2020)",
  "key": {"[1]": {"system": "MDR P. aeruginosa clinical isolate No.2", "conditions": "MDR clinical isolate No.2, 24 h"}, "[2]": {"system": "MDR P. aeruginosa clinical isolate No.4", "conditions": "MDR clinical isolate No.4, 24 h"}, "[3]": {"system": "Staphylococcus aureus ATCC 25923", "conditions": "ATCC 25923, 24 h"}, "P. aeruginosa ATCC 27853 [4]": {"system": "P. aeruginosa ATCC 27853", "test": "Time-killing kinetics", "format": "cell-based, Pseudomonas aeruginosa", "protocol": "The bacterial killing kinetics of PA-13 was assessed by evaluating the time course to kill suspensions of P. aeruginosa ATCC 27853 as described previously. […] Plates were incubated at 37 °C to determine the number of CFU after 24 h; the assays were performed in triplicate."}, "[5]": {"system": "MDR P. aeruginosa clinical isolate No.14", "conditions": "MDR clinical isolate No.14, 24 h"}, "[6]": {"system": "Bacillus cereus ATCC 11778", "conditions": "ATCC 11778, 24 h"}, "[7]": {"system": "MDR P. aeruginosa clinical isolate No.12"}, "[8]": {"system": "Enterococcus faecalis ATCC 29212", "conditions": "ATCC 29212, 24 h"}, "human TLR4 (hTLR4)": {"system": "human TLR4 (hTLR4)", "test": "LPS-mediated TLR4 activation, HEK-Blue hTLR4 SEAP reporter", "format": "cell-based", "conditions": "250 ng/ml LPS of P. aeruginosa serotype 10, 0.98-250 µg/ml peptide, 16 h; result in words", "protocol": "Stimulation with LPS activates NF-kB and AP-1, inducing the production of SEAP. Opposing this, the peptide can interact with LPS and inhibit TLR4 signal transduction, and so decrease production of SEAP. The hydrolysis of substrate by SEAP produces a purple/blue color.\nBriefly, HEK-Blue hTLR4 cells (3 × 10^4 cells/well) were seeded in 96-well plates and incubated at 37 °C in an air atmosphere containing 5% CO2 for 24 h. These cells were further incubated with 250 ng/ml LPS of P. aeruginosa serotype 10 (Sigma) and different concentrations of PA-13 (0.98-250 µg/ml) for 16 h. After incubation, supernatants were collected and incubated with QUANTI-Blue™ (InvivoGen). The absorbance of SEAP was monitored at 620 nm. The results were calculated from at least three independent experiments."}, "[9]": {"system": "MDR P. aeruginosa clinical isolate No.7", "conditions": "MDR clinical isolate No.7, 24 h"}, "LPS from E. coli O111:B4": {"system": "LPS from E. coli O111:B4", "test": "LPS binding, chromogenic limulus amebocyte lysate (LAL) assay", "design": "species or system Escherichia coli", "conditions": "1 EU/mL LPS, 1 × to 32 × MIC, 37 °C, 30 min; result in words", "protocol": "The ability of PA-13 to bind LPS was assessed using a quantitative, chromogenic limulus amebocyte lysate (LAL) according to the manufacturer’s instructions (Thermo Scientific). The LAL test is a sensitive indicator of the presence of free or non-neutralized endotoxin[30]. Stock solutions of peptide were prepared in endotoxin-free water provided with the kit. […] LAL reagent was added and incubated for 10 min at 37 °C, followed by addition of a colorless substrate and incubation for a further 6 min. The reaction was stopped with 25% (vol/vol) glacial acetic acid and the release of p-nitroaniline followed by absorbance at 405 nm. Endotoxin-free water served as a negative control (blank) and was considered 0% LPS binding. After blank subtraction, the percentage of LPS binding was calculated according to the following equation: %LPSbinding=(ODUntreated-ODTreated)/ODUntreated×100"}, "P. aeruginosa ATCC 27853 [10]": {"system": "P. aeruginosa ATCC 27853", "test": "Membrane permeability (PI) and depolarization (BOX), flow cytometry", "format": "cell-based, Pseudomonas aeruginosa", "conditions": "for permeabilized and depolarized cells: 0.5 × MIC; for cell population BOX+PI- / cell population BOX-PI+ / cell population BOX-PI- / permeabilized and depolarized cells (BOX+PI+): 1 × MIC; for permeabilized and depolarized cells (BOX+PI+): 37 °C, triplicate", "protocol": "Their outer and inner membranes provide important protection for Gram-negative bacteria. To assess membrane permeability and depolarization induced by PA-13, the DNA intercalating dyes propidium iodide (PI) and bis-(1,3-dibutylbarbituric acid) trimethine oxonol (BOX) were used as previously described. The fluorescence conferred by these dyes is generally associated with the loss of membrane integrity and potential, respectively.\nBriefly, P. aeruginosa ATCC 27853 was cultured to mid-logarithmic phase and harvested by centrifugation at 2,000 × g for 5 min. The bacterial cells were washed thrice with PBS and diluted to 10^7 CFU/ml in 50 ml of PBS. […] Bacterial pellets were harvested and washed with PBS by centrifugation at 10,000 × g for 10 min. […] Untreated bacterial cells (no peptide) served as a negative control, whereas bacterial cells treated with melittin served as a positive control. Data was recorded using a flow cytometer (CytoFlex, Beckman Coulter) at a laser excitation wavelength of 488 nm. Forward scatter (FS), side scatter (SS), green fluorescence (530/30 nm) from BOX and red fluorescence (585/42 nm) emitted by PI were collected using logarithmic scales. 25,000 cells, defined according to their scatter parameters, were counted in each sample. The experiments were performed in triplicate and the data was analyzed using Kaluza software."}, "[11]": {"system": "Vibrio cholera O1 Inaba DMST 16261", "conditions": "MHB, 37 °C, 24 h"}},
  "note": "“And” between values parts separate entries of the source, which are not always exact repeats. Equal entries are not always repeated. Where a SMILES comes first, the peptide text is derived from it.",
  "data": [
    {"smiles": "CC[C@H](C)[C@H](NC(=O)[C@H](CCCNC(=N)N)NC(=O)[C@H](CCCCN)NC(=O)[C@H](C)NC(=O)[C@@H](NC(=O)[C@@H](N)CCCCN)[C@@H](C)CC)C(=O)N[C@@H](Cc1c[nH]c2ccccc12)C(=O)N[C@@H](CCCCN)C(=O)N[C@H](C(=O)N[C@@H](CC(C)C)C(=O)N[C@@H](CCCNC(=N)N)C(=O)N[C@@H](CCCNC(=N)N)C(=O)N[C@@H](CCCNC(=N)N)C(N)=O)[C@@H](C)CC", "note": "[PA-13] (H-KIAKRIWKILRRR-NH2; N-terminus assumed)", "values": [
      {"measurement": "MIC", "setting": "[1]", "value": 7.81, "unit": "µg/mL"},
      {"measurement": "MIC", "setting": "[2]", "value": 7.81, "unit": "µg/mL"},
      {"measurement": "MIC", "setting": "[3]", "value": 62.5, "unit": "µg/mL"},
      {"measurement": "P. aeruginosa count within 30 min at MIC", "setting": "P. aeruginosa ATCC 27853 [4]", "value": "approximately 10^4 CFU/ml"},
      {"measurement": "time to complete killing (no regrowth)", "setting": "P. aeruginosa ATCC 27853 [4]; at MBC", "value": "≤ 4", "unit": "h"},
      {"measurement": "time to eradicate most bacteria", "setting": "P. aeruginosa ATCC 27853 [4]; at MIC (and MBC)", "value": "≤ 2", "unit": "h"},
      {"measurement": "regrowth after 24 h treatment", "setting": "P. aeruginosa ATCC 27853 [4]; at MIC, result in words", "value": "regrowth was observed"},
      {"measurement": "P. aeruginosa count within 30 min at MBC", "setting": "P. aeruginosa ATCC 27853 [4]; start 10^7 CFU/ml, MBC (7.81 μg/ml), MHB, 37 °C", "value": "~10^2 CFU/ml"},
      {"measurement": "MIC", "setting": "[5]", "value": 7.81, "unit": "µg/mL"},
      {"measurement": "MIC", "setting": "[6]", "value": 15.63, "unit": "µg/mL"},
      {"measurement": "MIC", "setting": "[7]", "value": 3.91, "unit": "µg/mL"},
      {"measurement": "MIC", "setting": "[8]", "value": 250, "unit": "µg/mL"},
      {"measurement": "inhibition of LPS-mediated TLR4 activation", "setting": "human TLR4 (hTLR4)", "value": "dose-dependent inhibition"},
      {"measurement": "MIC", "setting": "[9]", "value": 7.81, "unit": "µg/mL"},
      {"measurement": "LPS binding activity", "setting": "LPS from E. coli O111:B4", "value": "dose-dependent LPS binding activity"},
      {"measurement": "permeabilized and depolarized cells", "setting": "P. aeruginosa ATCC 27853 [10]; 15 min", "value": "72.75 ± 1.08", "unit": "%"},
      {"measurement": "permeabilized and depolarized cells", "setting": "P. aeruginosa ATCC 27853 [10]; 30 min", "value": "75.30 ± 2.68", "unit": "%"},
      {"measurement": "permeabilized and depolarized cells", "setting": "P. aeruginosa ATCC 27853 [10]; 60 min", "value": "81.66 ± 3.35", "unit": "%"},
      {"measurement": "cell population BOX+PI-", "setting": "P. aeruginosa ATCC 27853 [10]; 15 min", "value": 3.55, "unit": "%"},
      {"measurement": "cell population BOX-PI+", "setting": "P. aeruginosa ATCC 27853 [10]; 15 min", "value": 7.74, "unit": "%"},
      {"measurement": "cell population BOX-PI-", "setting": "P. aeruginosa ATCC 27853 [10]; 15 min", "value": 0.68, "unit": "%"},
      {"measurement": "permeabilized and depolarized cells (BOX+PI+)", "setting": "P. aeruginosa ATCC 27853 [10]; 15 min", "value": "88.03 ± 3.02% and 88.03%"},
      {"measurement": "cell population BOX+PI-", "setting": "P. aeruginosa ATCC 27853 [10]; 30 min", "value": 5.74, "unit": "%"},
      {"measurement": "cell population BOX-PI+", "setting": "P. aeruginosa ATCC 27853 [10]; 30 min", "value": 3.61, "unit": "%"},
      {"measurement": "cell population BOX-PI-", "setting": "P. aeruginosa ATCC 27853 [10]; 30 min", "value": 0.96, "unit": "%"},
      {"measurement": "permeabilized and depolarized cells (BOX+PI+)", "setting": "P. aeruginosa ATCC 27853 [10]; 30 min", "value": "89.69 ± 5.25% and 89.69%"},
      {"measurement": "cell population BOX+PI-", "setting": "P. aeruginosa ATCC 27853 [10]; 60 min", "value": 6.25, "unit": "%"},
      {"measurement": "cell population BOX-PI+", "setting": "P. aeruginosa ATCC 27853 [10]; 60 min", "value": 1.05, "unit": "%"},
      {"measurement": "cell population BOX-PI-", "setting": "P. aeruginosa ATCC 27853 [10]; 60 min", "value": 0.62, "unit": "%"},
      {"measurement": "permeabilized and depolarized cells (BOX+PI+)", "setting": "P. aeruginosa ATCC 27853 [10]; 60 min", "value": "92.07 ± 5.15% and 92.07%"},
      {"measurement": "MIC", "setting": "[11]", "value": 31.25, "unit": "µg/mL"}
    ]}
  ]
}
